From PubChem BioAssay AID1996
≈ marks a conversion by molar mass, not a printed value.

Conditions: buffer; pH 7.4; 200.0 µM

Row | SMILES | solubility kinetic [µg/mL]
1 | COc1cccc(NC(=O)C2=COCCO2)c1 | > 35.3
2 | COC(=O)c1ccc2nc(NC(=O)C3CC3)sc2c1 | 4.1 (≈ 14.8 µM)
3 | CN(C)Cc1ccc(CNC(=O)COc2ccc3ccccc3c2)cc1 | 44.7 (≈ 128 µM)
4 | Cc1[nH]c2ccccc2c1CCNC(=O)CCC(=O)c1ccccc1 | 47.7 (≈ 143 µM)
5 | Cc1nc2ccccc2c2oc(C(=O)N3CCC(C)CC3)cc12 | > 46.3
6 | COc1ccc(N2CC(C(=O)NCc3ccco3)CC2=O)cc1 (stereo not given) | 32.2 (≈ 102 µM)
7 | N#C/C(=C/c1ccco1)C(N)=S | > 26.7
8 | CC(NC(=O)CCNC(=O)c1ccco1)c1ccc(F)cc1 (stereo not given) | > 45.6
9 | CN(C(=O)c1ccc2c(c1)OCO2)C1CCCCC1 | 38.4 (≈ 147 µM)
10 | O=C(NC(=S)NCCc1ccccc1)c1ccccc1F | 0.8 (≈ 2.65 µM)
11 | COc1ccc2[nH]c(=O)c(CN(C)C(=O)c3cccs3)cc2c1 | 12.4 (≈ 37.8 µM)
12 | CSc1ccc(CNCC(O)c2ccccc2)cc1.Cl (stereo not given) | > 46.5
13 | O=c1c(NCCc2ccc(Cl)cc2)c(-c2ccccc2)c1=O | 2.6 (≈ 8.34 µM)
14 | C=CCn1c(NCc2ccccc2OC)nc2ccccc21 | 30.2 (≈ 103 µM)
15 | CN(c1ccc(C(=O)COC(=O)C2CC2)cc1)S(C)(=O)=O | > 46.7
16 | O=C(O)CCCCCNS(=O)(=O)c1ccc2c(c1)OCCO2 | > 49.4
17 | CC(=O)c1cccc(NC(=S)N2c3ccccc3CC2C)c1 (stereo not given) | 1.4 (≈ 4.51 µM)
18 | Fc1ccccc1-c1nc(NCc2ccccc2)c2ccccc2n1 | 3.1 (≈ 9.41 µM)
19 | CN(C)C(=O)C12CCC(C)(C(=O)C1Br)C2(C)C (stereo not given) | > 45.3
20 | Cc1nc2c(C)c(C)c(C)c(C)c2nc1C | < 0.2
21 | COc1cc(CNCC2CCCO2)ccc1OCC(N)=O.Cl (stereo not given) | 49
22 | O=S(=O)(Nc1nc2ccccc2nc1NCC1CCCO1)c1ccccc1 (stereo not given) | > 57.7
23 | CCN1CCN(C(=O)c2[nH]c3ccc(OC)cc3c2C)CC1 | > 45.2
24 | Cc1ccc(C(C)c2c(C)c([N+](=O)[O-])cc(C)c2[N+](=O)[O-])cn1 (stereo not given) | 13.4 (≈ 42.5 µM)

Row | SMILES | solubility kinetic [µg/mL]
25 | O=C(COC(=O)COc1ccccc1)NC1CCCC1 | > 41.6
26 | Cc1nccn1Cc1ccc(Cl)nc1 | > 31.1
27 | O=CNCc1nc2ccccc2n1CCCc1ccccc1 | > 44
28 | CCNC(=S)N1CCCC(c2nc3ccc(C)cc3[nH]2)C1 (stereo not given) | > 45.4
29 | Cc1cc([N+](=O)[O-])nn1CCCC(=O)NC1CCCCC1 | > 44.2
30 | O=c1c2[nH]c3ccccc3c2nc2n1CCS2 | 4.5 (≈ 18.5 µM)
31 | COc1cccc(N2CCN(C(=O)c3cc(C)oc3C)CC2)c1 | > 47.2
32 | CC(C)N(Cc1ccccc1)C(=S)Nc1ccccc1F | 40 (≈ 132 µM)
33 | O=[N+]([O-])c1cccc(N2Cc3ccccc3C2)c1 | 7.9 (≈ 32.9 µM)
34 | CC(C)(C)C(=O)CN1C(=O)NC2(CCCc3ccccc32)C1=O (stereo not given) | > 47.2
35 | O=C(/C=C/c1ccccc1[N+](=O)[O-])Nc1cccc(S(=O)(=O)NC2=NCCCCC2)c1 | 14.4 (≈ 32.5 µM)
36 | O=C(c1ccc([N+](=O)[O-])s1)N1CCc2ccccc21 | < 0.3
37 | C=CC(=O)Oc1ccc(N2Cc3ccccc3C2=O)cc1 | 2.4 (≈ 8.59 µM)
38 | S=C(Nc1ccc(Cl)cc1)NC1CCCCC1 | 4.4 (≈ 16.4 µM)
39 | O=c1ccnc(SCCc2ccc([N+](=O)[O-])cc2)[nH]1 | 21.6 (≈ 77.9 µM)
40 | COc1ccc(NS(=O)(=O)c2cccs2)cn1 | > 40.5
41 | COc1ccc(OCC(=O)N2CCCC2=O)c([N+](=O)[O-])c1 | 42.8 (≈ 145 µM)
42 | CCCCCN1C(C)=CC(=C(C#N)C#N)C=C1C | 3.3 (≈ 13.7 µM)
43 | CC(Cc1ccccc1)NC=O (stereo not given) | 24.4 (≈ 149 µM)
44 | N#Cc1ccc(NC(=O)c2cc(-c3cccs3)on2)cc1 | < 0.2
45 | CC(CCc1ccccc1)NC(=O)COC(=O)c1cccs1 (stereo not given) | > 47.6
46 | O=C1/C(=C\c2ccc(Cl)cc2Cl)N2CCC1CC2 | 8.9 (≈ 31.5 µM)
47 | CC1CN(S(=O)(=O)c2ccc(C(=O)N(C)C3CCCCC3)cc2)CC(C)O1 (stereo not given) | > 59.2
48 | O=C(c1cc(=O)[nH]c2ccccc12)N1CCN(c2ccccc2)CC1 | > 50

Row | SMILES | solubility kinetic [µg/mL]
49 | O=C(NS(=O)(=O)c1ccc(Cl)cc1)c1ccccc1 | 26.7 (≈ 90.3 µM)
50 | CCOc1ncccc1C(=O)NCc1ccccc1F | > 41.1
51 | COc1ccc(F)cc1S(=O)(=O)NCC1CCCO1 (stereo not given) | > 43.4
52 | O=C(Cc1ccc(Cl)c(Cl)c1)Nc1cccnc1 | > 42.2
53 | CC(NC(=O)c1cccc(S(=O)(=O)N(C)C)c1)C1CC2CCC1C2 (stereo not given) | 15.5 (≈ 44.2 µM)
54 | Cc1ccc(NS(=O)(=O)c2ccc(C(=O)NCc3ccc(S(N)(=O)=O)cc3)cc2)cc1 | 51.7 (≈ 113 µM)
55 | CC(C)CN(C(=O)C1CCCCC1)C1CCS(=O)(=O)C1 (stereo not given) | > 45.2
56 | CCC(=Nc1cccc(C(F)(F)F)c1)c1c(O)n(C)c(=O)n(C)c1=O | 6.4 (≈ 18 µM)
57 | CC(=O)c1cccc(S(=O)(=O)N2CCC(C(=O)O)CC2)c1 | > 46.7
58 | CN(C(=O)COC(=O)CCC(=O)c1ccc(F)cc1)C1CCCCC1 | > 52.4
59 | O=C(NCCc1ccccc1)c1cccc(N2C(=O)C3CC=CCC3C2=O)c1 (stereo not given) | 47.2 (≈ 126 µM)
60 | CCCn1c(SCC(=O)Nc2ccc(Cl)cc2)n[nH]c1=O | > 49
61 | CCCCCC(=O)NC(=S)Nc1ccc2oc(=O)ccc2c1 | 1.5 (≈ 4.71 µM)
62 | CC(C)c1ccc(N(CC(=O)N2CCOCC2)S(C)(=O)=O)cc1 | 32.9 (≈ 96.6 µM)
63 | COC(=O)c1cc(NC(=O)c2cccnc2)ccc1N1CCOCC1 | > 51.2
64 | C=CCOc1ccc(CNCc2cccnc2)cc1.Cl | > 43.6
65 | O=S(=O)(c1ccccc1)N1CCN(CCO)CC1 | > 40.6
66 | CC(=O)c1sc(-c2ccc(Cl)cc2)nc1C | < 0.5
67 | O=c1c2[nH]c3cccc(Cl)c3c2ncn1Cc1ccco1 | 0.5 (≈ 1.67 µM)
68 | Cc1cccc(NC(=O)C(C)C(=O)c2ccccc2)c1 (stereo not given) | 8.5 (≈ 31.8 µM)
69 | COc1ccc(OC)c(NC(=O)COC(=O)C2CCC2)c1 | > 44
70 | Cc1ccc(S(=O)(=O)Nc2ccccc2N2CCCCC2)cc1 | 3.1 (≈ 9.38 µM)
71 | CC(C)/C=C1\CCc2c([nH]c3ccccc23)C1=O | 1.5 (≈ 6.27 µM)
72 | COc1ccccc1CCNC(=O)c1ccc(Br)s1 | 29 (≈ 85.2 µM)

Row | SMILES | solubility kinetic [µg/mL]
73 | Cn1cnnc1SCC(=O)NCCC1=CCCCC1 | > 42.1
74 | c1ccc2sc(NC3=NCN(CC4CCCO4)CN3)nc2c1 (stereo not given) | 42.1 (≈ 133 µM)
75 | COc1ccc(-n2nc(C)cc2Nc2ccccc2C(=O)O)cc1 | > 48.5
76 | Cc1ccc(S(=O)(=O)N2CC(=NN=C(N)N)C2)cc1 | > 42.2
77 | Cc1cc(C(=O)Nc2ccncc2)c2ccccc2n1 | 26.3 (≈ 99.9 µM)
78 | Cc1oncc1C(=O)NC1CCCCC1 | > 31.2
79 | COc1cccc(NC(=S)Nc2ccc(F)cc2)c1 | 28.7 (≈ 104 µM)
80 | CC(=O)Nc1cccc(OCCCNC(=O)C2CCC2)c1 | > 43.6
81 | O=C(CCCN1C(=O)/C(=C/c2ccccc2OC(F)F)SC1=S)Nc1cccnc1 | 4.5 (≈ 10 µM)
82 | Cl.O=C(Cc1ccccc1)NCCN1CCCC1 | > 40.3
83 | COc1ccc(NC(=O)CN(C)C2CCCCC2)cc1Cl | 32.7 (≈ 105 µM)
84 | O=C(OCc1ccc(Cl)c(Cl)c1)c1ccc[nH]1 | 1.9 (≈ 7.03 µM)
85 | O=C(Nc1nc(-c2ccc(Br)cc2)cs1)c1cccnc1 | < 0.3
86 | O=C1NCCN/C1=C\C(=O)c1cccc(Br)c1 | > 44.3
87 | CC(=O)Nc1ccc2nc(NC(=O)c3cccnc3)sc2c1 | 7.4 (≈ 23.7 µM)
88 | Cc1cccc(NC(=O)NC2CCCc3ccccc32)c1 (stereo not given) | 0.7 (≈ 2.5 µM)
89 | CN(C)/C=C/C(=O)c1cc(N2CCOCC2)ccc1[N+](=O)[O-] | > 45.8
90 | Cc1ccc(NC(=O)C2CC2c2ccccc2)c([N+](=O)[O-])c1 (stereo not given) | 3.5 (≈ 11.8 µM)
91 | CC1(C)C2CCC1(C)C(OC(=O)C[n+]1ccccc1N)C2.[Br-] (stereo not given) | > 55.4
92 | COc1ccc(N2CCN(C(=O)Cc3ccc(Cl)cc3)CC2)cc1 | 50.1 (≈ 145 µM)
93 | O=C(Nc1nccs1)c1cc(Cl)nc2ccccc12 | 5.2 (≈ 17.9 µM)
94 | CC1CCN(C(=O)CC(NC(N)=O)c2ccccc2Cl)CC1 (stereo not given) | 44.2 (≈ 136 µM)
95 | Cc1ccn2cc(CNS(=O)(=O)c3cccs3)nc2c1 | > 46.1
96 | COc1ccc(Cl)cc1NC(=O)CN(C)C(=O)c1cccc(S(=O)(=O)N2CCN(C)CC2)c1 | 67.4 (≈ 136 µM)

Row | SMILES | solubility kinetic [µg/mL]
97 | COC(=O)c1c(C)[nH]c(C(=O)CC#N)c1C | 27.2 (≈ 124 µM)
98 | CC1CCN(C(=O)COC(=O)CCc2c[nH]c3ccccc23)CC1 | 9 (≈ 27.4 µM)
99 | O=C(COC(=O)c1cccs1)Nc1ccccc1[N+](=O)[O-] | 2 (≈ 6.53 µM)
100 | Cc1cc(C)cc(N2CC(C(=O)Nc3cc(C)on3)CC2=O)c1 (stereo not given) | 6.7 (≈ 21.4 µM)
101 | Cc1cccc(N2C(=O)C(Cl)=C(N3CCOCC3)C2=O)c1 | > 46
102 | Cc1cc(S(=O)(=O)N2CCc3ccccc3C2)ccc1F | < 0.7
103 | Cc1ccccc1NC(=O)/C=C/c1cccs1 | 19.5 (≈ 80.1 µM)
104 | O=C1NC(=O)/C(=C/c2ccc(-c3cccc([N+](=O)[O-])c3)o2)S1 | 3.8 (≈ 12 µM)
105 | Cc1cccc(C)c1OCCN1C(=O)NC(C)(c2ccccc2)C1=O (stereo not given) | 5 (≈ 14.8 µM)
106 | NC(=O)c1ccsc1NC(=O)COC(=O)CNC(=O)c1ccc(Cl)cc1 | 3.4 (≈ 8.59 µM)
107 | COCCCNC(=S)Nc1cc2oc3ccccc3c2cc1OC | 3.9 (≈ 11.3 µM)
108 | CCN(C(=O)c1ccc(Cl)c([N+](=O)[O-])c1)c1ccccc1 | 35.8 (≈ 117 µM)
109 | COC(=O)c1cn(CC(=O)Nc2ccccc2C)c2ccccc12 | 0.4 (≈ 1.24 µM)
110 | Cc1noc(NS(=O)(=O)c2ccc(NC(=O)C(C)C)cc2)c1C | > 50.6
111 | Cc1ccc(-c2nc(Cl)nc3ccccc23)cc1 | 1.7 (≈ 6.67 µM)
112 | O=C(CN1CCCCCC1)Nc1cc(C(F)(F)F)ccc1Cl | < 0.4
113 | CCN1CCN(C(=O)C(=O)c2c(C)[nH]c3ccccc23)CC1 | 36.1 (≈ 121 µM)
114 | Cn1c(COc2ccc([N+](=O)[O-])cc2)nnc1SCC(N)=O | > 48.5
115 | COc1ccc(CN(C)C(=O)c2sccc2-c2ccccc2)c(OC)c1 | 12 (≈ 32.7 µM)
116 | Cc1ccc(C(=O)C(=O)c2ccc(C)c(N)c2)cc1N | 35 (≈ 130 µM)
117 | CCCn1c(=O)c(C(=O)NCc2ccco2)c(O)c2ccccc21 | < 0.3
118 | CCCCCC(=O)Oc1cccc(N2C(=O)C3CCCCC3C2=O)c1 (stereo not given) | 4.3 (≈ 12.5 µM)
119 | O=[N+]([O-])c1cccc(S(=O)(=O)N2CCc3ccccc3C2)c1 | < 0.3
120 | c1ccc2c(CN3CCCCC3)c[nH]c2c1 | > 32.1
